Assay results as given in patent publication US9822068B2, “Inhibitors of fatty acid amide hydrolase (FAAH) enzyme with improved oral bioavailability and their use as medicaments” (THE REGENTS OF THE UNIVERSITY OF CALIFORNIA, priority 2014, dated 2017).
Values after ≈ are worked out from the molar mass of the structure shown. Where two headings read alike, the source gives them in different places.

Key:
Rat FAAH = Rat FAAH (Rattus norvegicus (Rat), UniProt P97612); experiment: In vitro rat FAAH radiometric assay; type: biochemical; conditions: rat brain homogenate, 10 min pre-incubation at 37° C.; read-out: r-FAAH IC50
Sequence of Rat FAAH (P97612 whole entry): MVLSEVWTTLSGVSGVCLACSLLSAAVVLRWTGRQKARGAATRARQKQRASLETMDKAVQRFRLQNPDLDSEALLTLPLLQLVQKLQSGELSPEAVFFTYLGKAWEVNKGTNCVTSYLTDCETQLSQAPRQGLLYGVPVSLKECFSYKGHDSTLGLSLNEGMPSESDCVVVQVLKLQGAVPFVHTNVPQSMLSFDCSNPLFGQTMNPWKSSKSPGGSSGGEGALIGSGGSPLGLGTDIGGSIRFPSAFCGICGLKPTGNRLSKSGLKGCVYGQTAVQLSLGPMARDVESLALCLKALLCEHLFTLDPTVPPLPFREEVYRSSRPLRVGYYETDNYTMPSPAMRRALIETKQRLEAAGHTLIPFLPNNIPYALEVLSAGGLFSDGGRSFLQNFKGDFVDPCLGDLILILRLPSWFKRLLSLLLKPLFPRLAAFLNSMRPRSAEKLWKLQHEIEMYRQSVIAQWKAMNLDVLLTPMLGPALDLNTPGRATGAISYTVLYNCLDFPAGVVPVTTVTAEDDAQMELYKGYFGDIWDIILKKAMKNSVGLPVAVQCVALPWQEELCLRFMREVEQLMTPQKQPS
Protocol: In Vitro Rat FAAH Radiometric Assay
Rat FAAH was prepared from male Sprague Dawley rat brains, homogenized in a potter in 20 mM of Tris HCl pH 7.4, 0.32 M sucrose.
The radiometric assay used to measure FAAH activity was performed in Eppendorf tubes: 50 μg of total rat brain homogenate were pre-incubated in 445.5 μL of assay buffer (50 mM Tris-HCl pH 7.4, 0.05% Fatty acid-free-bovine serum albumin (BSA)) with 4.5 μL of inhibitor (at appropriate concentration in DMSO) or DMSO alone (to measure FAAH total activity) for 10 min at 37° C. The blank (no activity control) was prepared using 445.5 μL of assay buffer and 4.5 μL of DMSO without the 50 μg of total rat brain homogenate.
After 10 min of pre-incubation with test compounds, the reaction was started by adding of 50 μL of substrate and incubating for 30 min at 37° C. The substrate was prepared in assay buffer in order to achieve the final concentration of 1 μM arachidonoyl ethanolamide (Cayman Chemical N. 90050) and 0.6 nM anandamide [ethanolamine-1-^3H] (American Radiolabeled Chemicals Inc, ART. 0626, Conc. 1 mCi/mL, S.A. 60 Ci/mmol). The reaction was stopped by adding cold 1:1 CHCl3/MeOH. After 10 min of centrifugation (845×g at 4° C.) 600 μL of aqueous phase were transferred into scintillation vials previously filled with 3 mL of scintillation fluid (Ultima Gold™, Perkin Elmer Inc., Cat. 6013329). Radioactivity was measured by liquid scintillation counting (MicroBeta2 LumiJET Perkin Elmer Inc.).
(§1) Concentrations causing half-maximal inhibition of FAAH, IC50 values, were determined by non-linear regression analysis of the Log [concentration]/response curves generated with mean replicate values using a four parameter Hill equation curve fitting with GraphPad Prism 5 (GraphPad Software Inc., CA—USA).

[1] = Aqueous kinetic solubility assay; type: physicochemical; conditions: phosphate buffered saline, aqueous buffer, kinetic from dmso stock, PBS pH 7.4, target 250 μM, 2.5% DMSO, 25° C.
Protocol: Aqueous Kinetic Solubility Assay
The aqueous kinetic solubility was determined from a 10 mM DMSO stock solution of test compound in Phosphate Buffered Saline (PBS) at pH 7.4.
The study was performed by incubation of an aliquot of 10 mM DMSO stock solution in PBS (pH 7.4) at a target concentration of 250 μM resulting in a final concentration of 2.5% DMSO. The incubation was carried out under shaking at 25° C. for 24 h followed by centrifugation. The supernatant was analyzed by UPLC/MS for the quantification of dissolved compound by UV at a specific wavelength (215 nm).
The aqueous kinetic solubility (in μM) was calculated by dividing the peak area of the supernatant by the peak area of the test compound reference and further multiplied by the concentration of the test compound reference and dilution factor.
The UPLC/MS analyses were performed on a Waters ACQUITY UPLC/MS system consisting of a SQD (Single Quadrupole Detector) Mass Spectrometer equipped with an Electrospray Ionization interface and a Photodiode Array Detector. The PDA range was 210-400 nm. The analyses were run on an ACQUITY UPLC BEH C18 column (50×2.1 mmID, particle size 1.7 m) with a VanGuard BEH C18 pre-column (5×2.1 mmID, particle size 1.7 μm). The mobile phase was 10 mM NH4OAc in H2O at pH 5 adjusted with AcOH (A) and 10 mM NH4OAc in MeCN—H2O (95:5) at pH 5 (B). Electrospray ionization in positive and negative mode was applied in the mass scan range 100-500 Da.

human FAAH-1 = human FAAH-1 (Homo sapiens (Human), UniProt O00519); experiment: In vitro human FAAH fluorescent assay; type: biochemical; conditions: human FAAH-1 membrane preparation from HEK-293, 50 min pre-incubation at 37° C.; read-out: h-FAAH IC50
Sequence of human FAAH-1 (O00519 whole entry): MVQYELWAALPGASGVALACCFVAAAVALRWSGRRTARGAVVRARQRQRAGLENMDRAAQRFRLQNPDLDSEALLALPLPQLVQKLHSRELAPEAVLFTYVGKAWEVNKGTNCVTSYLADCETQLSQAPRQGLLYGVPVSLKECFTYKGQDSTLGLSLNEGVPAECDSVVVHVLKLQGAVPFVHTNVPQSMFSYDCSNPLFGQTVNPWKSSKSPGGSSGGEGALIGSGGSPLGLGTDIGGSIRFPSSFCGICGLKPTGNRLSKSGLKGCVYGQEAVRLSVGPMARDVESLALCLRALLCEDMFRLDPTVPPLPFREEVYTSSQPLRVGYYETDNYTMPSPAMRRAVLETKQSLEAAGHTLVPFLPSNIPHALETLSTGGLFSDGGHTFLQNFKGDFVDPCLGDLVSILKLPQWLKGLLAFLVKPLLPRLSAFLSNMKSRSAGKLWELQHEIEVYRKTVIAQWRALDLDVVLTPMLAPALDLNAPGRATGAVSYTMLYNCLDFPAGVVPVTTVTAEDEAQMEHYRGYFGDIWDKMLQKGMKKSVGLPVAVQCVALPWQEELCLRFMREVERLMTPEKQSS
Protocol: In Vitro Human FAAH Fluorescent Assay
Human recombinant FAAH was obtained from a HEK-293 cell line stably overexpressing human FAAH-1 enzyme. Cells were grown in Dulbecco's Modified Eagle Medium (DMEM) medium containing 10% FBS, 1% pen/strep, 1% glutamine and 500 μg/mL G418. To obtain membrane preparation cells were scraped off with cold PBS and collected by centrifugation (500×g, 10 min, 4° C.); the cell pellet was re-suspended in 20 mM Tris-HCl pH 7.4, 0.32M sucrose, disrupted by sonication (10 pulses, 5 times) and centrifuged (800×g, 15 min, 4° C.); the collected supernatant was centrifuged at 105,000×g for 1 h at 4° C. and the pellet was re-suspended in PBS.
The fluorescent assay to measure FAAH activity was performed in 96 wells black plates: 2.5 μg of human FAAH-1 membrane preparation were pre-incubated for 50 min at 37° C., in 180 µL of assay buffer (50 mM TrisHCl pH 7.4, 0.05% Fatty acid-free-BSA) with 10 μL of inhibitor (at appropriate concentration in DMSO) or 10 μL DMSO to measure FAAH total activity. The background (no activity) samples were prepared using 180 μL of assay buffer without human FAAH-1 and 10 μL of DMSO. The reaction was then started by the addition of 10 μL of a 40 μM substrate solution (N. 10005098, Cayman Chemical) dissolved in ethanol, and used at a final concentration of 2 μM. The reaction was carried out for 30 min at 37° C. and fluorescence was measured with a Tecan Infinite M200 nanoquant plate reader (excitation wavelength 350 nm/emission wavelength 460 nm).
as §1

[2] = Pharmacokinetic experiment in cannulated Sprague-Dawley rats (PO and IV); type: in vivo; conditions: plasma, rat; for bioavailability: PO 10 mg/kg vs IV 3 mg/kg, read-out: Oral bioavailability (F %)
Protocol: Pharmacokinetic Experiment and Analysis
Compounds were administered orally (PO) and intravenously (IV) to cannulated Sprague-Dawley rats at 10 and 3 mg/kg, respectively. Vehicle was: PEG400/Tween 80/Saline solution at 10/10/80 (% in volume), respectively. Three animals per dose were treated. Blood samples at 0, 15, 30, 60, 120, 240, 480 and 1440 min after administration were collected for PO arm. Blood samples at 0, 5, 15, 30, 60, 120 and 240 min after administration were collected for IV arm. Plasma was separated from blood by centrifugation for 15 min at 3500 rpm a 4° C., collected in a Eppendorf tube and frozen (−80° C.). Control animals treated with vehicle only were also included in the experimental protocol.
Preparation of Samples, Standard Curve and QC Samples for UPLC-MS Analysis
Samples were thawed in an ice bath and after a short centrifugation transferred (50 μL) into a 96-deepwell plate and added with 150 μL of acetonitrile spiked with 200 nM Warfarin (the Internal Standard, I.S.). After agitation (3 min) the plate was centrifuged at 3000 g for 10 min at 4° C. 80 μL of supernatant was then transferred in a 96-well plate and added with 80 μL of water. Standard compound was spiked in neat solvent (PBS pH 7.4 added with 10% acetonitrile) to prepare a calibration curve over the 1 nM-10 μM range. Three quality controls (QCs) samples were also prepared spiking the compound in blank rat plasma to final 20, 200 and 2000 nM concentrations. Calibrators and QCs were crashed with acetonitrile spiked with the I.S. as described for the plasma samples. Dosing solutions, previously diluted 2000 fold in the neat solvent were also included in the samples and tested.
Compounds plasma levels were monitored on a Xevo TQ UPLC-MS/MS system (Waters, Milford USA), using the calibration curve and the internal standard (Warfarin). Chromatography was carried out on a Acquity BEH C18 column (2.1×50 mmID, 1.7 m particle size, Waters, Milford USA). Flow rate was 0.5 mL/min. The mobile phase was (A) H2O/0.1% formic acid; (B) MeCN/0.1% formic acid. A linear gradient was applied from 5 to 100% B in 2 min. 3 μL of each sample were loaded on column. MS parameters and multiple reaction monitoring (MRM) transitions were carefully tuned for each compound. Plasma levels data were analyzed using PKSolutions excel application (Summit Research Service, USA) to derive the most important pharmacokinetic parameters.
The oral bioavailability (F %) data, and the Area Under the Curve (AUC) data (ng×min/mL) corresponding to the IV (3 mg/kg) and PO (10 mg/kg) dose of selected compounds described in the Examples are reported in Table 3. Their F % data are in the range from 35 to 87.

[3] = IV, 3 mg/kg, read-out: AUC IV (3 mg/kg) (converted)
[4] = PO, 10 mg/kg, read-out: AUC PO (10 mg/kg) (converted)

SMILES | IC50 (Rat FAAH) [nM] | solubility kinetic at 24 h [1] [µM] | IC50 (human FAAH-1) [nM] | bioavailability [2] [%] | AUC [2, 3] [ng·h/mL] | AUC [2, 4] [ng·h/mL]
CNC(=O)c1cccc(-c2cc(OC(=O)NC3CCCCC3)ccc2OC(F)F)c1 [Example 9, [4-(difluoromethoxy)-3-[3-(methylcarbamoyl)phenyl]phenyl] N-cyclohexyl carbamate] | 3.5 | 8 (≈ 3.35 µg/mL) | 12 | 53 | 1390 | 2480
CNC(=O)c1cccc(-c2cc(OC(=O)NC3CCCCC3)ccc2F)c1 [Example 1, [4-fluoro-3-[3-(methylcarbamoyl)phenyl]phenyl]N-cyclohexylcarbamate] | 1.4 | 28 (≈ 10.4 µg/mL) | 12 | 87 | 1280 | 3700
